The source of these data is patent publication US9732065B2, “Cyclic aminomethyl pyrimidine derivative” (Sumitomo Dainippon Pharma Co., Ltd., priority 2013, dated 2017).

Data set [1] can be described thus: PK study in rat (bioavailability). To be noted: plasma, oral vs intravenous administration. In kind it is in vivo. As for the experimental part: In this study, the pharmacokinetics of the present compound can be evaluated. Specifically, a 7-week-old SD-type or WKY-type rat received the intravenous administration of a solution of the present compound in saline or the oral administration of a suspension of the present compound in carboxymethylcellulose or methylcellulose. Blood was collected from the rat at each time below.
Intravenous administration: 5 minutes, 15 minutes, 30 minutes, 1 hour, 2 hours, 4 hours, 6 hours, and 24 hours after administration
Oral administration: 15 minutes, 30 minutes, 1 hour, 2 hours, 4 hours, 6 hours, and 24 hours after administration
Plasma was collected from the blood, the levels of the present compound in the plasma were measured by a LC-MS method, and then the pharmacokinetic parameters were calculated on the basis of the level changes.

Data set [2] can be described thus: Brain penetration study in rat. The class given is in vivo. To be noted: brain and plasma, unbound brain-to-plasma drug concentration ratio. On the procedure:
In this study, the brain penetration of the present compound can be evaluated. Specifically, a 7-week-old SD-type or WKY-type rat received the subcutaneous administration of a solution of the present compound in saline or the oral administration of a suspension of the present compound in methylcellulose. Plasma and brain were collected from the treated rat 0.5 hour, 1 hour or 2 hours after the administration, and then the levels of the present compound in the plasma and the brain were measured by a LC-MS method.
The protein binding ratios of the present compound to the plasma and the brain were measured by an equilibrium dialysis method.
The levels of the present compound in the plasma and the brain as well as the plasma and brain protein binding ratios are applied to the following formula, and thus Kp,uu,brain (Unbound brain-to-plasma drug concentration ratio) can be calculated. Kp,uu,brain=(level of the present compound in the brain×(100−brain protein binding ratio (%))/100)/(level of the present compound in the plasma×(100−plasma protein binding ratio (%))/100)

The target of data set [3] is T1, Human dopamine D4 receptor (Homo sapiens, UniProt P21917).
T1 sequence (P21917 1-419): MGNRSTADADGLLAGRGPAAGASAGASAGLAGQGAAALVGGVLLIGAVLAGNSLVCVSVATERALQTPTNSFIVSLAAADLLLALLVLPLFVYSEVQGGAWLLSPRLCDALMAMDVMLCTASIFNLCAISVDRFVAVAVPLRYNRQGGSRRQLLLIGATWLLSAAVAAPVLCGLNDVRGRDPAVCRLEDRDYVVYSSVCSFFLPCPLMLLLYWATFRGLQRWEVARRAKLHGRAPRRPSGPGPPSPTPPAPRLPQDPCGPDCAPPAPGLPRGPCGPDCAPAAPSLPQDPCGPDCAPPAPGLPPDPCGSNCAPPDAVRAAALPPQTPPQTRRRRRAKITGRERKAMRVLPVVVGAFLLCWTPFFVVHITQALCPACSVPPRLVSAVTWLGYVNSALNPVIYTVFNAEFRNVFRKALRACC
In words: Agonistic/antagonistic activity in G protein dependent pathway (aequorin intracellular calcium luminescence), D4. The following applies: for Emax at 1 µM / Emax at 0.1 µM: read-out: Maximal activity on each receptor (%): D4; for inhibition at 0.1 µM / inhibition at 1 µM: against 10 μM endogenous ligand, read-out: Inhibitory activity on each receptor (%): D4. Further details: expressed in transfected cells; host or cells: CHO-K1 or HEK293 cells. The class given is cell-based. On the procedure: (§1) Plasmids encoding each receptor, aequorin and Gα16 were prepared, and the plasmids were transfected into CHO cells (Chinese Hamster Ovary cells) or HEK293 cells (Human Embryonic Kidney 293 cells) to prepare expressing cell lines.
(§2) The agonistic or antagonistic activity of the present compound in the G protein dependent pathway was evaluated on the basis of intracellular calcium levels as follows. CHO-K1 or HEK293 cell lines transfected with D2, D4, α1A, or α2A receptor genes were seeded in a 384-well plate, and incubated in a CO2 incubator at 37° C. for 24 hours, and then a solution of the present compound in DMSO was added into cells preloaded with coelenterazine to measure the change in luminescent signals with a FDSS (Hamamatsu Photonics K.K.). […] The agonistic activity of the present compound was calculated according to the measured luminescent signals, as the maximal activity (Emax) of the present compound. On the other hand, the antagonistic activity of the present compound was calculated according to the luminescent signals in wells with 10 μM of an endogenous ligand alone defined as 100%, as the inhibitory activity of the present compound to an endogenous ligand. EC50 value was calculated as the concentration of the present compound required to achieve a 50% response, and IC50 was calculated as the concentration of the present compound required to achieve a 50% inhibition of the Emax of an endogenous ligand.

For data set [4], the target named is T2, human adrenergic α1A receptor (Homo sapiens, UniProt P35348).
T2 construct: expressed in transfected cells; host or cells: CHO-K1 or HEK293 cells
T2 sequence (P35348 1-466): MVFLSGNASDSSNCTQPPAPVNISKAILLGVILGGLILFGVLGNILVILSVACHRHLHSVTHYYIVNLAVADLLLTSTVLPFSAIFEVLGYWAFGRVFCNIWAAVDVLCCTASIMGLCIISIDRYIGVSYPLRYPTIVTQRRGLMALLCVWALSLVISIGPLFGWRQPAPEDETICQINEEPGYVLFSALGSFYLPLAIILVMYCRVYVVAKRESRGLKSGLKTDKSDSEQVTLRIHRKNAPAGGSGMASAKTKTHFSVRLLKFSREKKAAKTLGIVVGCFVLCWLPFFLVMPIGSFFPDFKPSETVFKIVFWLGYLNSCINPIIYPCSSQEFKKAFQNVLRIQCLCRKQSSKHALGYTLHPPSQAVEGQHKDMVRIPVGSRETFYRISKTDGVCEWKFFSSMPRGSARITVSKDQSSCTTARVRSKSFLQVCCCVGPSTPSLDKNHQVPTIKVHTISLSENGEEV
In words: Agonistic/antagonistic activity in G protein dependent pathway (aequorin intracellular calcium luminescence), α1A. The class given is cell-based. The following applies: for Maximal activity on each receptor (%): α1A: 10 μM adrenaline = 100%; for inhibition at 0.1 µM / inhibition at 1 µM: against 10 μM endogenous ligand, read-out: Inhibitory activity on each receptor (%): α1A. On the procedure: as §1, §2

In data set [5] the target is T1, Human dopamine D4 receptor. In words: G protein independent pathway: β-arrestin recruit ability (PathHunter β-galactosidase). Set-up: expressed in transfected cells. To be noted: β-arrestin recruitment, 90 minutes; 10 μM dopamine = 100%. The class given is cell-based. As for the experimental part: The activation of the G protein independent pathway was evaluated on the basis of the recruit ability of β-arrestin as follows. Cell lines transfected with D4 receptor genes were seeded in a 384-well plate, and incubated in a CO2 incubator at 37° C. for 24 hours, a solution of the present compound in DMSO was added into the cells, and then the cells were left at 37° C. for 90 minutes. Buffer containing β-galactosidase reaction substance (PathHunter Cell Assay Buffer, DiscoverRx) was added thereto, and luminescent signals in the wells were measured with a FDSS (Hamamatsu Photonics K.K.). […] The maximal activity (Emax) of the present compound was calculated according to the measured luminescent signals. EC50 value was calculated as the concentration of the present compound required to achieve a 50 response.
On the technique in general: Activated receptors often draw arrestin, which recruitment assays turn into a signal.

Regarding `Nc1ncc(CN2CCC(c3ccccn3)CC2)cn1` [Example 36], the bioavailability (usually the share of a dose that reaches the circulation, judged against a reference dose that is usually intravenous) in data set [1] was 67.2%. Further, the Kp uu in data set [2] came to 2.28. For the same compound, the Emax at 1 µM in data set [3] is 82%.

With `Nc1ncc(CN2CCC(c3cncc(F)c3)CC2)cn1` [Example 46, 5-[4-(5-Fluoropyridin-3-yl)piperidin-1-ylmethyl]pyrimidin-2-amine], in data set [1], the bioavailability is 92.2%. The Kp uu in data set [2] was 1.8. Moreover, in data set [3], the inhibition at 0.1 µM was 61%, the inhibition at 1 µM amounted to 85%, the Emax at 0.1 µM was determined as 14% and the Emax at 1 µM came to 40%. In data set [4] (0.1 μM), the “Maximal activity on each receptor (%): α1A” value (shortened to “Maximal activity … (%): α1A”) stood at 0.08% and the inhibition at 0.1 µM is -6.4%. In data set [4] (1 μM), the “Maximal activity … (%): α1A” value is given as 0.23% and the inhibition at 1 µM was -17%. In data set [5], the “Maximal activity on D4 receptor (%)” value came out at 11%.

On to `Cc1ncc(CN2CCC(c3cccnc3)CC2)c(C)n1` [Example 45, 2,4-Dimethyl-5-[4-(pyridin-3-yl)piperidin-1-ylmethyl]pyrimidine], for which, in data set [1], the bioavailability stood at 21.6%. In addition, the Kp uu in data set [2] came to 0.8. Further, in data set [3], the inhibition at 0.1 µM amounted to 72%, the inhibition at 1 µM stood at 87%, the Emax at 0.1 µM is 20% and the Emax at 1 µM worked out at 35%. Further, in data set [4] (0.1 μM), the “Maximal activity … (%): α1A” value is 0.03% and the inhibition at 0.1 µM was -5.6%. In data set [4] (1 μM), the “Maximal activity … (%): α1A” value was found to be 0.08% and the inhibition at 1 µM was -0.73%. Moreover, the “Maximal activity on D4 receptor (%)” value in data set [5] is reported as 9%.

Take `Cc1ncc(CN2CCC(c3ccccn3)CC2)c(C)n1` [Example 44, 2,4-Dimethyl-5-[4-(pyridin-2-yl)piperidin-1-ylmethyl]pyrimidine]: in data set [1], the bioavailability amounted to 27.6%. For the same compound, the Kp uu in data set [2] turned out to be 0.8. In addition, in data set [3], the inhibition at 0.1 µM was 58%, the inhibition at 1 µM amounted to 78%, the Emax at 0.1 µM was 27% and the Emax at 1 µM came to 64%. In data set [4] (0.1 μM), the “Maximal activity … (%): α1A” value stood at 0.04% and the inhibition at 0.1 µM was determined as 2.7%. In data set [4] (1 μM), the “Maximal activity … (%): α1A” value came to 0.01% and the inhibition at 1 µM worked out at 2.6%. For the same compound, the “Maximal activity on D4 receptor (%)” value in data set [5] came to 6%.
